The values below are quoted from earlier work in US10391078B2, “Methods for the treatment of mast cell related disorders with mast cell stabilizers” (Respivant Sciences GmbH, priority 2015, dated 2019).

Read-outs that look alike come from different tables or passages of the source.

Turning to `O=C(O)c1cc(=O)c2c(OCC(O)COc3cccc4oc(C(=O)O)cc(=O)c34)cccc2o1` [cromolyn sodium], the oral bioavailability entry is on record as “less than 1%”. Besides, the oral bioavailability result (listed as cromolyn) is reported as “about 1%”.
